Results: the supplement of paper PMC11208160

test: recombinant barcode read abundance after kanamycin selection (control-corrected) (log10(CPM+1)); higher = more efficient recombination; sequences stand for … in AGTGCAGAGAAAATCGGCCAGTTTTCTCTGCCTGCAGTCCGCATGCCGT…AGATTTATGCAGCGGACTGCCTTTCTCCCAAAGTGATAAACCGGACAGTATCATGGACCGGTTTTCCCGGTAATCCGTATTTGCAAGGTTGGTTTCACT; site = the 11-nt target
How it was run: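 IS621 bridge RNA target-binding loops were paired with targets in a pooled library tested in E. coli. After co-electroporation with a donor plasmid, cells were plated in two replicates on chloramphenicol/ampicillin LB agar (control) and on chloramphenicol/ampicillin/kanamycin carrying 0.1 mM IPTG. Barcodes at recombinant junctions were counted as counts per million, averaged and control-corrected to give recombination efficiency. Values are log10(CPM+1).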
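Also: IS621 recombinase and bridge RNA in Escherichia coli cells.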

Sequence	recombinant barcode read abundance (log10)
GATTCACCTTGGGTTCTAACCTGTTGCCT (site AATTCACCTAG)	0.543
GATTCACCTTGGGTTCTAACCTGTTGCCT (site CATTCACCTAG)	0.0425
GATTCACCTTGGGTTCTAACCTGTTGCCT (site GATTCACCTAG)	0.739
GATTCACCTTGGGTTCTAACCTGTTGCCT (site TATTCACCTAG)	0.274
GATTTCTCTTGGGTTCTAACCTGTTGCCT (site AATTTCTCTAG)	0.104
GATTTCTCTTGGGTTCTAACCTGTTGCCT (site CATTTCTCTAG)	0.0742
GATTTCTCTTGGGTTCTAACCTGTTGCCT (site GATTTCTCTAG)	0.228
GATTTCTCTTGGGTTCTAACCTGTTGCCT (site TATTTCTCTAG)	0.124
GCAAGATCTTGGGTTCTAACCTGTTGCCT (site GCAAGATCTAG)	1.36
GCAAGATCTTGGGTTCTAACCTGTTGCCT (site GCAGGGTCTAG)	0.0113
GCAATGACTTGGGTTCTAACCTGTTGCCT (site GAAATGACTAG)	0
GCAATGACTTGGGTTCTAACCTGTTGCCT (site GCAATGACTAG)	1.88
GCAATGACTTGGGTTCTAACCTGTTGCCT (site GGAATGACTAG)	0.105
GCAATGACTTGGGTTCTAACCTGTTGCCT (site GTAATGACTAG)	0.292
GCAATGTCTTGGGTTCTAACCTGTTGCCT (site GAAATGTCTAG)	0.104
GCAATGTCTTGGGTTCTAACCTGTTGCCT (site GCAATGTCTAG)	1.42
GCAATGTCTTGGGTTCTAACCTGTTGCCT (site GGAATGTCTAG)	0.239
GCAATGTCTTGGGTTCTAACCTGTTGCCT (site GTAATGTCTAG)	0.443
GCACACCCTTGGGTTCTAACCTGTTGCCT (site CCACATCCTAG)	0.0345
GCACACCCTTGGGTTCTAACCTGTTGCCT (site GCACACCCTAG)	1.1
GCACATCCTTGGGTTCTAACCTGTTGCGT (site GCAAATCCTAG)	0.154
GCACATCCTTGGGTTCTAACCTGTTGCGT (site GCACATCCTAC)	2.53

Sequence	recombinant barcode read abundance (log10)
GCACCTGCTTGGGTTCTAACCTGTTGCCT (site GCACCTGCTAG)	1.61
GCACCTGCTTGGGTTCTAACCTGTTGCCT (site TATTTGCCTCA)	0.238
GCACGCTCTTGGGTTCTAACCTGTTGCCT (site GCACACTCTAG)	0.607
GCACGCTCTTGGGTTCTAACCTGTTGCCT (site GCACCCTCTAG)	0.192
GCACGCTCTTGGGTTCTAACCTGTTGCCT (site GCACGCTCTAG)	1.55
GCACGCTCTTGGGTTCTAACCTGTTGCCT (site GCACTCTCTAG)	0.12
GCACTCTCTTGGGTTCTAACCTGTTGCCT (site GCACACTCTAG)	0.0251
GCACTCTCTTGGGTTCTAACCTGTTGCCT (site GCACCCTCTAG)	0.568
GCACTCTCTTGGGTTCTAACCTGTTGCCT (site GCACGCTCTAG)	0.101
GCACTCTCTTGGGTTCTAACCTGTTGCCT (site GCACTCTCTAG)	1.58
GCATCCACTTGGGTTCTAACCTGTTGCCT (site GCATCCACTAG)	0.938
GCATCCACTTGGGTTCTAACCTGTTGCCT (site GCGTCCACTAG)	0.0333
GCATCTACTTGGGTTCTAACCTGTTGCCT (site GAATCTACTAG)	0.101
GCATCTACTTGGGTTCTAACCTGTTGCCT (site GCATCTACTAG)	0.136
GCATCTACTTGGGTTCTAACCTGTTGCCT (site GGATCTACTAG)	0.059
GCATCTACTTGGGTTCTAACCTGTTGCCT (site GTATCTACTAG)	0.2
GCATCTCCTTGGGTTCTAACCTGTTGCCT (site ACATCTCCTAG)	0.4
GCATCTCCTTGGGTTCTAACCTGTTGCCT (site CCATCTCCTAG)	0.103
GCATCTCCTTGGGTTCTAACCTGTTGCCT (site GCATCTCCTAG)	1.06
GCATCTCCTTGGGTTCTAACCTGTTGCCT (site TCATCTCCTAG)	0.0491
GCATGAGCTTGGGTTCTAACCTGTTGCCT (site GCATGAGCTAG)	2.09
GCATGAGCTTGGGTTCTAACCTGTTGCCT (site GCCTGAGCTAG)	0.122

Sequence	recombinant barcode read abundance (log10)
GCATGAGCTTGGGTTCTAACCTGTTGCCT (site GCGTGAGCTAG)	0.136
GCATGAGCTTGGGTTCTAACCTGTTGCCT (site GCTTGAGCTAG)	0.914
GCCAACCCTTGGGTTCTAACCTGTTGCAT (site GCCAACCCTAA)	0.0781
GCCAACCCTTGGGTTCTAACCTGTTGCAT (site GCCAACCCTAC)	0.0603
GCCAACCCTTGGGTTCTAACCTGTTGCAT (site GCCAACCCTAG)	0.348
GCCAACCCTTGGGTTCTAACCTGTTGCAT (site GCCAACCCTAT)	0
GCCAACCCTTGGGTTCTAACCTGTTGCTA (site GCCAACCCTTA)	0.116
GCCAACCCTTGGGTTCTAACCTGTTGCTA (site TCCAACCCTTG)	0.129
GCCACACCTTGGGTTCTAACCTGTTGCCT (site GCCAAACCTAG)	0.188
GCCACACCTTGGGTTCTAACCTGTTGCCT (site GCCACACCTAG)	0.222
GCCACACCTTGGGTTCTAACCTGTTGCCT (site GCCAGACCTAG)	0.177
GCCACACCTTGGGTTCTAACCTGTTGCCT (site GCCATACCTAG)	0.153
GCCAGGGCTTGGGTTCTAACCTGTTGCCG (site GCCAGGGCTCG)	0.461
GCCAGGGCTTGGGTTCTAACCTGTTGCCG (site GCCCGGGCTCG)	0.264
GCCAGGGCTTGGGTTCTAACCTGTTGCCG (site GCCGGGGCTCG)	0.111
GCCAGGGCTTGGGTTCTAACCTGTTGCCG (site GCCTGGGCTCG)	0.0195
GCCATACCTTGGGTTCTAACCTGTTGCCT (site GCCAAACCTAG)	0.0715
GCCATACCTTGGGTTCTAACCTGTTGCCT (site GCCACACCTAG)	0.0723
GCCATACCTTGGGTTCTAACCTGTTGCCT (site GCCAGACCTAG)	0.194
GCCATACCTTGGGTTCTAACCTGTTGCCT (site GCCATACCTAG)	0.199
GCCATGACTTGGGTTCTAACCTGTTGCCT (site GCCATAACTAG)	0.067
GCCATGACTTGGGTTCTAACCTGTTGCCT (site GCCATCACTAG)	0.0872

Sequence	recombinant barcode read abundance (log10)
GCCATGACTTGGGTTCTAACCTGTTGCCT (site GCCATGACTAG)	0.132
GCCATGACTTGGGTTCTAACCTGTTGCCT (site GCCATTACTAG)	0
GCCCAATCTTGGGTTCTAACCTGTTGCCT (site GCCCAATCTAG)	1.05
GCCCAATCTTGGGTTCTAACCTGTTGCCT (site GCCCCATCTAG)	0.115
GCCCAATCTTGGGTTCTAACCTGTTGCCT (site GCCCGATCTAG)	0.176
GCCCAATCTTGGGTTCTAACCTGTTGCCT (site GCCCTATCTAG)	0.195
GCCCAGCCTTGGGTTCTAACCTGTTGCGG (site ACCAAGCCTCC)	0.0607
GCCCAGCCTTGGGTTCTAACCTGTTGCGG (site GCCCAGCCTCC)	2.71
GCCCTCCCTTGGGTTCTAACCTGTTGCCT (site GCACTCCCTAG)	0.558
GCCCTCCCTTGGGTTCTAACCTGTTGCCT (site GCCCTCCCTAG)	1.77
GCCCTCCCTTGGGTTCTAACCTGTTGCCT (site GCGCTCCCTAG)	0.0524
GCCCTCCCTTGGGTTCTAACCTGTTGCCT (site GCTCTCCCTAG)	0.597
GCCGGCTCTTGGGTTCTAACCTGTTGCCT (site GACGGCTCTAG)	0.182
GCCGGCTCTTGGGTTCTAACCTGTTGCCT (site GCCGGCTCTAG)	1.35
GCCTAGTCTTGGGTTCTAACCTGTTGCCA (site GCCTAGTCTTG)	1.13
GCCTAGTCTTGGGTTCTAACCTGTTGCCA (site TCCTAGTCTTG)	0.0302
GCCTCGGCTTGGGTTCTAACCTGTTGCCT (site GCATCGGCTAG)	0.0156
GCCTCGGCTTGGGTTCTAACCTGTTGCCT (site GCCTCGGCTAG)	0.134
GCCTCGGCTTGGGTTCTAACCTGTTGCCT (site GCGTCGGCTAG)	0.0495
GCCTCGGCTTGGGTTCTAACCTGTTGCCT (site GCTTCGGCTAG)	0.0313
